Experimental data taken from patent US12404285B2, “KRAS G12D proteolysis targeting chimeras” (PAQ Therapeutics Inc., priority 2022, dated 2025).

What follows are compounds tested against T1, KRAS (G12D)-HiBit in AsPc-1-KRAS (G12D)-HiBit-KI cell (Homo sapiens, UniProt P01116, G12D) (assay: G12D HiBit assay). Conditions: 24 hours compound treatment, absolute DC50, read-out: Average PHA DC50.
T1 construct: host or cells: AsPc-1-KRAS (G12D)-HiBit-KI cells (knock-in line)
Format: cell-based
Method in brief: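 AsPc-1 cells with HiBiT knocked into KRAS G12D, seeded at 5×10^3/well and held overnight, then treated 24 h with 10-point 3-fold dilutions (300 nM to 0.015 nM). Lytic Nano-Glo HiBiT luminescence expressed as % of 0.1% DMSO control; absolute DC50 from curve fit.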

T1 sequence (P01116 1-188 isoform P01116-2 G12D): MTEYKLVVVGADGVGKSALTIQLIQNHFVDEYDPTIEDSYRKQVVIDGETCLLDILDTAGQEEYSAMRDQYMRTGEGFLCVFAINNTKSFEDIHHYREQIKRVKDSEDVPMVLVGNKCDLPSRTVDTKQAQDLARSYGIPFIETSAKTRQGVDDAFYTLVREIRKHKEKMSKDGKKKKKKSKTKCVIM

DC50 [nM]	Structure (SMILES)
100 to 300	C#Cc1c(F)ccc2cccc(-c3ncc4c(N5CC6CCC(C5)N6)nc(OC[C@@]56CCCN5[C@H](COC(=O)N5CCC7(CCC(CCc8cccc9c8n(C)c(=O)n9C8CCC(=O)NC8=O)CC7)CC5)CC6)nc4c3F)c12 (stereo partly drawn) [Compound 60, [(3S,8S)-8-[[4-(3,8-Diazabicyclo[3.2.1]octan-3-yl)-7-(8-ethynyl-7-fluoro-1-naphthyl)-8-fluoro-pyrido[4,3-d]pyrimidin-2-yl]oxymethyl]-1,2,3,5,6,7-hexahydropyrrolizin-3-yl]methyl 9-[2-[1-(2,6-dioxo-3-piperidyl)-3-methyl-2-oxo-benzimidazol-4-yl]ethyl]-3-azaspiro[5.5]undecane-3-carboxylate]
100 to 300	C#Cc1c(F)ccc2cccc(-c3ncc4c(N5CC6CCC(C5)N6)nc(OC[C@@]56CCCN5[C@H](COC(=O)N5CCC(N7CCC(Cc8cccc9c8n(C)c(=O)n9C8CCC(=O)NC8=O)CC7)CC5)CC6)nc4c3F)c12 (stereo partly drawn) [Compound 65, [(3S,8S)-8-[[4-(3,8-Diazabicyclo[3.2.1]octan-3-yl)-7-(8-ethynyl-7-fluoro-1-naphthyl)-8-fluoro-pyrido[4,3-d]pyrimidin-2-yl]oxymethyl]-1,2,3,5,6,7-hexahydropyrrolizin-3-yl]methyl 4-[4-[[1-(2,6-dioxo-3-piperidyl)-3-methyl-2-oxo-benzimidazol-4-yl]methyl]-1-piperidyl]piperidine-1-carboxylate]
< 100	C#Cc1c(F)ccc2cccc(-c3ncc4c(N5CC6CCC(C5)N6)nc(OC[C@@]56CCCN5[C@H](COC(=O)N5CCC(CNC7CCN(Cc8cccc9c8n(C)c(=O)n9C8CCC(=O)NC8=O)CC7)CC5)CC6)nc4c3F)c12 (stereo partly drawn) [Compound 145, [(3S,8S)-8-[[4-(3,8-Diazabicyclo[3.2.1]octan-3-yl)-7-(8-ethynyl-7-fluoro-1-naphthyl)-8-fluoro-pyrido[4,3-d]pyrimidin-2-yl]oxymethyl]-1,2,3,5,6,7-hexahydropyrrolizin-3-yl]methyl 4-[[[1-[[1-(2,6-dioxo-3-piperidyl)-3-methyl-2-oxo-benzimidazol-4-yl]methyl]-4-piperidyl]amino]methyl]piperidine-1-carboxylate]
< 100	C#Cc1c(F)ccc2cccc(-c3ncc4c(N5CC6CCC(C5)N6)nc(OC[C@@]56CCCN5[C@H](COC(=O)N5CCC(OCCc7cccc8c7n(C)c(=O)n8C7CCC(=O)NC7=O)CC5)CC6)nc4c3F)c12 (stereo partly drawn) [Compound 135, [(3S,8S)-8-[[4-(3,8-Diazabicyclo[3.2.1]octan-3-yl)-7-(8-ethynyl-7-fluoro-1-naphthyl)-8-fluoro-pyrido[4,3-d]pyrimidin-2-yl]oxymethyl]-1,2,3,5,6,7-hexahydropyrrolizin-3-yl]methyl 4-[2-[1-(2,6-dioxo-3-piperidyl)-3-methyl-2-oxo-benzimidazol-4-yl]ethoxy]piperidine-1-carboxylate]
< 100	C#Cc1c(F)ccc2cccc(-c3ncc4c(N5CC6CCC(C5)N6)nc(OC[C@@]56CCCN5[C@H](COC(=O)N5CCC(OCC7CCN(Cc8ccc9c(c8)n(C)c(=O)n9C8CCC(=O)NC8=O)CC7)CC5)CC6)nc4c3F)c12 (stereo partly shown) [Compound 71]
≥ 300	C#Cc1c(F)ccc2cccc(-c3ncc4c(N5CC6CCC(C5)N6)nc(OC[C@@]56CCCN5[C@H](COC(=O)N5CCC(OCc7ccc8c(c7)n(C)c(=O)n8C7CCC(=O)NC7=O)CC5)CC6)nc4c3F)c12 (stereo partly drawn) [Compound 116, [(3S,8S)-8-[[4-(3,8-Diazabicyclo[3.2.1]octan-3-yl)-7-(8-ethynyl-7-fluoro-1-naphthyl)-8-fluoro-pyrido[4,3-d]pyrimidin-2-yl]oxymethyl]-1,2,3,5,6,7-hexahydropyrrolizin-3-yl]methyl4-[[1-(2,6-dioxo-3-piperidyl)-3-methyl-2-oxo-benzimidazol-5-yl]methoxy]piperidine-1-carboxylate]
100 to 300	C#Cc1c(F)ccc2cccc(-c3ncc4c(N5CC6CCC(C5)N6)nc(OC[C@@]56CCCN5[C@H](COC(=O)N5CCN(C7CCN(Cc8ccc9c(c8)n(C)c(=O)n9C8CCC(=O)NC8=O)CC7)CC5)CC6)nc4c3F)c12 (stereo partly shown) [Compound 72]
< 100	C#Cc1c(F)ccc2cccc(-c3ncc4c(N5C[C@H]6CC[C@@H](C5)N6)nc(OC[C@@]56CCCN5[C@H](COC(=O)N5CCC(CC7CCN(Cc8cccc9c8n(C)c(=O)n9C8CCC(=O)NC8=O)CC7)CC5)CC6)nc4c3F)c12 (stereo partly drawn) [Compound 132, ((3S,7aS)-7a-(((4-((1R,5S)-3,8-Diazabicyclo[3.2.1]octan-3-yl)-7-(8-ethynyl-7-fluoronaphthalen-1-yl)-8-fluoropyrido[4,3-d]pyrimidin-2-yl)oxy)methyl)hexahydro-1H-pyrrolizin-3-yl)methyl4-((1-((1-(2,6-dioxopiperidin-3-yl)-3-methyl-2-oxo-2,3-dihydro-1H-benzo[d]imidazol-4-yl)methyl)piperidin-4-yl)methyl)piperidine-1-carboxylate]
< 100	C#Cc1c(F)ccc2cccc(-c3ncc4c(N5CC6CCC(C5)N6)nc(OC[C@@]56CCCN5[C@H](COC(=O)N5CCO[C@@H](CN7CCN(c8cccc9c8n(C)c(=O)n9C8CCC(=O)NC8=O)CC7)C5)CC6)nc4c3F)c12 (stereo partly drawn) [Compound 111, [(3S,8S)-8-[[4-(3,8-Diazabicyclo[3.2.1]octan-3-yl)-7-(8-ethynyl-7-fluoro-1-naphthyl)-8-fluoro-pyrido[4,3-d]pyrimidin-2-yl]oxymethyl]-1,2,3,5,6,7-hexahydropyrrolizin-3-yl]methyl (2S)-2-[[4-[1-(2,6-dioxo-3-piperidyl)-3-methyl-2-oxo-benzimidazol-4-yl]piperazin-1-yl]methyl]morpholine-4-carboxylate-2,6-dione]
≥ 300	C#Cc1c(F)ccc2cccc(-c3ncc4c(N5CC6CCC(C5)N6)nc(OC[C@@]56CCCN5[C@H](COC(=O)NC[C@@H]5CN(CCCc7cccc8c7n(C)c(=O)n8C7CCC(=O)NC7=O)CCO5)CC6)nc4c3F)c12 (stereo partly drawn) [Compound 126, [(3S,8S)-8-[[4-(3,8-Diazabicyclo[3.2.1]octan-3-yl)-7-(8-ethynyl-7-fluoro-1-naphthyl)-8-fluoro-pyrido[4,3-d]pyrimidin-2-yl]oxymethyl]-1,2,3,5,6,7-hexahydropyrrolizin-3-yl]methyl N-[[(2 R)-4-[3-[1-(2,6-dioxo-3-piperidyl)-3-methyl-2-oxo-benzimidazol-4-yl]propyl]morpholin-2-yl]methyl]carbamate]
≥ 300	C#Cc1c(F)ccc2cccc(-c3ncc4c(N5CC6CCC(C5)N6)nc(OC[C@@]56CCCN5[C@H](COC(=O)N5CCC(N7CCN(c8cccc9c8n(C)c(=O)n9C8CCC(=O)NC8=O)CC7)CC5)CC6)nc4c3F)c12 (stereo partly drawn) [Compound 131, [(3S,8S)-8-[[4-(3,8-Diazabicyclo[3.2.1]octan-3-yl)-7-(8-ethynyl-7-fluoro-1-naphthyl)-8-fluoro-pyrido[4,3-d]pyrimidin-2-yl]oxymethyl]-1,2,3,5,6,7-hexahydropyrrolizin-3-yl]methyl4-[4-[1-(2,6-dioxo-3-piperidyl)-3-methyl-2-oxo-benzimidazol-4-yl]piperazin-1-yl]piperidine-1-carboxylate]
< 100	C#Cc1c(F)ccc2cccc(-c3ncc4c(N5CC6CCC(C5)N6)nc(OC[C@@]56CCCN5[C@H](COC(=O)N5CC[C@H](CN7CCC(c8ccc9c(c8)n(C)c(=O)n9C8CCC(=O)NC8=O)CC7)C5)CC6)nc4c3F)c12 (stereo partly shown) [Compound 80]
≥ 300	C#Cc1c(F)ccc2cccc(-c3ncc4c(N5CC6CCC(C5)N6)nc(OC[C@@]56CCCN5[C@H](COC(=O)N5CC7(CCN(c8cccc9c8n(C)c(=O)n9C8CCC(=O)NC8=O)CC7)C5)CC6)nc4c3F)c12 (stereo partly drawn) [Compound 121, [(3S,8S)-8-[[4-(3,8-Diazabicyclo[3.2.1]octan-3-yl)-7-(8-ethynyl-7-fluoro-1-naphthyl)-8-fluoro-pyrido[4,3-d]pyrimidin-2-yl]oxymethyl]-1,2,3,5,6,7-hexahydropyrrolizin-3-yl]methyl 7-[1-(2,6-dioxo-3-piperidyl)-3-methyl-2-oxo-benzimidazol-4-yl]-2,7-diazaspiro[3.5]nonane-2-carboxylate]
< 100	C#Cc1c(F)ccc2cccc(-c3ncc4c(N5CC6CCC(C5)N6)nc(OC[C@@]56CCCN5[C@H](COC(=O)N5CCC(COC7CN(Cc8ccc9c(c8)n(C)c(=O)n9C8CCC(=O)NC8=O)C7)CC5)CC6)nc4c3F)c12 (stereo partly shown) [Compound 73]
≥ 300	C#Cc1c(F)ccc2cccc(-c3ncc4c(N5CCCC6(CCO6)C5)nc(OC[C@@]56CCCN5[C@H](COC(=O)N5CCC(OCCCc7cccc8c7n(C)c(=O)n8C7CCC(=O)NC7=O)CC5)CC6)nc4c3F)c12 (stereo partly shown) [Compound 36]
< 100	C#Cc1c(F)ccc2cccc(-c3ncc4c(N5CC6CCC(C5)N6)nc(OC[C@@]56CCCN5[C@H](COC(=O)N5CCC(CN7CCC(c8ccc9c(c8)n(C)c(=O)n9C8CCC(=O)NC8=O)CC7)CC5)CC6)nc4c3F)c12 (stereo partly shown) [Compound 44]
≥ 300	C#Cc1c(F)ccc2cccc(-c3ncc4c(N5CC6CCC(C5)N6)nc(OC[C@@]56CCCN5[C@H](COC(=O)NCCCCCCC(=O)N5CCN(c7ccc(N8CCC(=O)NC8=O)cc7)CC5)CC6)nc4c3F)c12 [Compound 149, [(3S,8S)-8-[[4-(3,8-Diazabicyclo[3.2.1]octan-3-yl)-7-(8-ethynyl-7-fluoro-1-naphthyl)-8-fluoro-pyrido[4,3-d]pyrimidin-2-yl]oxymethyl]-1,2,3,5,6,7-hexahydropyrrolizin-3-yl]methyl N-[7-[4-[4-(2,4-dioxohexahydropyrimidin-1-yl)phenyl]piperazin-1-yl]-7-oxo-heptyl]carbamate]
< 100	C#Cc1c(F)ccc2cccc(-c3ncc4c(N5CC6CCC(C5)N6)nc(OC[C@@]56CCCN5[C@H](COC(=O)N5CCC(COC7CCN(Cc8ccc9c(c8)n(C)c(=O)n9C8CCC(=O)NC8=O)CC7)CC5)CC6)nc4c3F)c12 (stereo partly shown) [Compound 68]

Structure (SMILES)	DC50 [nM]
C#Cc1c(F)ccc2cccc(-c3ncc4c(N5CC6CCC(C5)N6)nc(OC[C@@]56CCCN5[C@H](COC(=O)N5CCC(OCCCCCCCc7cccc8c7n(C)c(=O)n8C7CCC(=O)NC7=O)CC5)CC6)nc4c3F)c12 (stereo partly shown) [Compound 59]	< 100
